Numbers after ± are expanded uncertainties.
What was measured:
[1] = Crystal; for Normal melting temperature: DTA
[2] = Molar enthalpy of transition or fusion; settings: Crystal; DSC
[3] = molar enthalpy of vaporization or sublimation; settings: 298.15 K; Crystal; Calver Calorimeter- drop method

Normal melting temperature [1] [°C]	Molar enthalpy of transition or fusion [2] [kcal/mol]	molar enthalpy [3] [kcal/mol]	molar enthalpy of sublimation ([1]; 298.15 K, Calver Calorimeter- drop method) [kcal/mol]	SMILES
155.64 ± 0.39	4.99 ± 0.117	26.9 ± 1.2		O=c1[nH]sc2ccccc12 [1,2-benzisothiazol-3(2H)-one]
178.24 ± 0.39	6.04 ± 0.143		28.2 ± 1.82	O=C1CSc2ccccc2N1 [2H-1,4-benzothiazin-3(4H)-one]
